The values below come from patent US20070082858A1, “Methods and compositions for the prevention of toxic side effects of aminoglycoside medications” (priority 2004, published 2007).

Entries after “also recorded” stand apart in the source; their conditions may differ.

For one data set, the system named is MDCK cells. Put plainly: GTTR uptake into MDCK cells under TRPV1 agonists/antagonists, cation channel blockers, cations and pH (30-60 seconds, 20° C., FATX fixation, confocal imaging). The following applies: for GTTR uptake stimulated by TRPV1 agonists/antagonists: AND, SB366791 or I-RTX; for hydrolyzed TR penetration into the cytoplasm (control for toxicity or increased permeability): highest doses shown: 5×10^−7 M RTX. From the text: MDCK cells were used as a model system to test regulation of GTTR uptake by conditions known to produce or modify a cation current through the TRPV1 channel. Conditions tested were varying extracellular calcium concentrations, pH, specific agonists, specific antagonists, and the non-specific cation channel blocker Ruthenium Red. In addition, we pre-mixed PIP2 with GTTR to determine whether that anionic phospholipid, known to bind gentamicin, would alter GTTR uptake. All these assays were done at room temperature (20° C.), for 30 or 60 seconds, and using doses of GTTR of 5 to 10 μg/ml, which are far below the typical therapeutic level of <300 μg/ml. Buffers used for treatment were as described for each experiment. Cells were quickly washed to replace culture medium with treatment buffer, treated as indicated, washed again after treatment, fixed immediately with 4% formaldehyde and 0.5% Triton X-100 (FATX), and washed prior to imaging.
Methods: Cells were seeded into 8-well coverglass chambers at 3000 cells/well and grown for 5 days.
Cells were washed three times with the buffer to be used in the particular experiment, treated with GTTR and experimental variable for 30 or 60 seconds at 20° C., precluding endocytosis. Following treatment, cells were rinsed three times with buffer, then fixed and delipidated with 4% formaldehyde plus 0.5% Triton X-100 (FATX) for 45 minutes. Following fixation, cells were rinsed with PBS (Invitrogen, CA) for at least 4-6 times, or until foaming in the suction pipette ceased. In contrast to previous experiments, no FBS was present in the treatment media, allowing for more rapid uptake of the antibiotic-based GTTR.
MDCK cells were washed with Hank's buffered salt solution (HBSS; Invitrogen, CA), then placed into buffers of varying potassium concentrations. HBSS was mixed with equi-osmolar KCl/HBSS to produce the required K^+ concentrations. Cells were treated with 1 μg/mL GTTR for 1 minute, then washed and fixed as described above.
Cells were washed with PBS (Invitrogen, CA), then placed into buffers containing varying concentrations of calcium, obtained by mixing HBSS with equimolar CaCl2, each at pH 7.3. Cells were treated with 5 μg/mL of GTTR for 30 seconds, then washed and fixed as above.
Cells were washed with saline, then treated with 5 μg/mL of GTTR in saline buffers of varying pH for 30 seconds, then washed and fixed as above. Sodium hydroxide and hydrochloric acid were used to alter pH. These experiments were performed in three different saline buffers: (i) PBS (no calcium), (ii) a mixture of […] for a final calcium concentration of 0.32 mM, and (iii) a mixture of three parts PBS to one part HBSS for a final calcium concentration of 0.97 mM.
Cells were washed three times with Ca^++-free saline (0.9% NaCl), then treated with 5 μg/mL GTTR and one of the following for 30 seconds: TRPV1 agonists (resiniferatoxin [RTX]; or anandamide [AND]; Alexis Biochemicals, San Diego, Calif.); or antagonists (iodo-RTX, or SB 366791; Tocris, Ellisville, Mo.). Cells were then washed in saline and fixed as above.
Cells were washed three times with Ca^++-free 0.9% NaCl, then treated with 5 μg/mL GTTR and one of the following for 30 seconds: 100 μM Ruthenium Red, 100 μM Ruthenium Red plus one of the TRPV1 agonists or antagonists described above; or lanthanum (La^+++) at 0.5 or 5 mM.

Data set [1] has as its system bullfrog saccular hair cells. Put plainly: GTTR uptake in bullfrog saccular explants with TRPV1 regulators. It is filed as cell-based. The protocol:
Bullfrogs (Rana catesbeiana) were anesthetized with 0.2% MS-222 and chilled before decapitation. The temporal bones were excised in cold oxygenated HEPES-buffered saline (HBS) containing 110 mM Na+; 2 mM K+; 4 mM Ca2+; 120 mM Cl−; 3 mM D-glucose, and 5 mM HEPES (pH=7.25; 220 mOsmols). Each saccule was isolated and the otolithic membrane removed by proteolytic digestion for 20 minutes in oxygenated 50 μg/ml subtilopeptidase BPN (Sigma) at room temperature. Saccular explants were then incubated in Wolf-Quimby culture medium (containing 1 mM Ca2+; Life Technologies) supplemented with 100 μg/ml ciprofloxacin in a 5% CO2 environment at 25° C. (Steyger et al. 1997; Steyger et al. 1998). Gentamicin-treated explants were incubated in the above culture media, supplemented with 300 μg/ml GT/GTTR.

The subject of the next data set is murine cochlear explants. Kind of data set: GTTR uptake in murine cochlear explants with RTX. Type of data set: cell-based. The following applies: level of OHC nuclei.
The next data set has as its system inner ear explants. Kind of data set: GTTR uptake in explants of bullfrog and murine inner ears (Example 9). Type of data set: cell-based. From the text: Deafness and nephrotoxicity are serious consequences of aminoglycoside (AG) therapy. As discussed above, in cultured kidney cells, the non-endocytotic component of fluorescently-labeled gentamicin (GTTR) uptake was regulated by TRPV1 channel agonists and antagonists (pH, Ca^++, RTX). This example discusses the influence of these modulators on GTTR uptake in explants of bullfrog and murine inner ears.

The conditions of data set [2]: cited from earlier work.

In the case of `N.N.N.N.N.N.N.N.N.N.N.N.N.N.[Cl-].[Cl-].[Cl-].[Cl-].[Cl-].[Cl-].[O-2].[O-2].[Ru+3].[Ru+3].[Ru+4]` [RR, Ruthenium Red], the GTTR uptake result with MDCK cells (10 mM RR alone (Example 1)) and with MDCK cells (10^−5 M RR alone (Example 11)) was “took up less GTTR than controls” each time. For the same molecule, the “GTTR uptake stimulated by TRPV1 agonists/antagonists” value with MDCK cells (10 mM RR plus RTX, AND effect not completely blocked (Example 1)) is “blocked GTTR increases stimulated by RTX, AND, SB366791, and I-RTX”; in the data set with MDCK cells (10^−5 M RR plus RTX, AND effect not completely blocked (Example 11)) it was “blocked GTTR increases stimulated by RTX, AND, SB366791, and I-RTX”. Further, the “GTTR uptake in saccular hair cells” value in data set [1] (Ruthenium Red) and in data set [1] (Ruthenium Red in explants co-treated with iodo-RTX) was “significantly reduced by Ruthenium Red” each time.
In the case of `C=C(C)[C@]12C[C@@H](C)[C@@]34O[C@](Cc5ccccc5)(O[C@@H]1[C@@H]3C=C(COC(=O)Cc1ccc(O)c(OC)c1)C[C@]1(O)C(=O)C(C)=C[C@@H]41)O2` [RTX, resiniferatoxin], the GTTR uptake entry was “reduced GTTR uptake compared to controls at the same calcium levels” with MDCK cells (5×10^−9 M RTX with 0.16 or 2.0 mM added calcium, pH 7.0); “increased GTTR uptake” in the data set with MDCK cells (5×10^−9 M RTX, saline without added calcium, pH 7.0, 1 μg/mL GTTR 30 seconds); “little or no change over control” with MDCK cells (RTX 5×10^−7 M, calcium-free saline pH 7.3, 5 μg/mL GTTR 30 seconds); “increased, but to a lesser extent” in the data set with MDCK cells (RTX 5×10^−8 M, calcium-free saline pH 7.3, 5 μg/mL GTTR 30 seconds); “significantly increased” in the data set on MDCK cells (RTX 5×10^−9 M, calcium-free saline pH 7.3, 5 μg/mL GTTR 30 seconds); “little or no change over control” in the data set with MDCK cells (RTX 10^−6 M, calcium-free saline pH 7.3). Also, the GTTR uptake entry with MDCK cells (RTX 10^−7 M, calcium-free saline pH 7.3) was “increased to a lesser extent”; in the data set on MDCK cells (RTX 10^−8 M, calcium-free saline pH 7.3) it was “significantly increased”; in the data set on MDCK cells (RTX with calcium concentrations as low as 0.08 mM), “inhibited GTTR uptake”; in the data set with MDCK cells (combination of 2 mM Ca^++ and 5×10^−9 RTX), “greatly reduced GTTR uptake”; in the data set on inner ear explants (RTX at 0.16 mM Ca^++) it was “enhanced GTTR uptake”; in the data set with inner ear explants (RTX at physiological Ca^++ levels), “reduced GTTR uptake”. For the same molecule, the “hydrolyzed TR penetration into the cytoplasm (control for toxicity or increased permeability)” value in the data set with MDCK cells (10^−5 M I-RTX) is reported as “Neither I-RTX or RTX induced TR penetration into the cytoplasm”. Moreover, the “GTTR uptake in saccular hair cells” value is “reduced by co-treatment with RTX, and Ca++” in data set [1] (RTX and Ca++ co-treatment); “significantly reduced by RTX” in data set [1] (RTX co-administered with GTTR). The results for the “GTTR uptake in the organ of Corti” value with murine cochlear explants (RTX plus Ca++) and with murine cochlear explants (RTX) were “reduced further by RTX plus Ca++” and “reduced by RTX”, respectively.
For `COc1cccc(NC(=O)/C=C/c2ccc(Cl)cc2)c1` [SB366791], the GTTR uptake entry in the data set with MDCK cells (SB366791 10^−7 M to 10^−5 M, calcium-free saline pH 7.3) is “increased GTTR uptake significantly; also recorded: serially increased GTTR uptake”.
In the case of `[Gd+3]` [Gd^+++, Gadolinium], the GTTR uptake result with MDCK cells (0.5, 5, or 50 mM Gd^+++ in HBSS pH 7.3, 30 seconds) was “serially decreased”.
Turning to `CCCCC/C=C\C/C=C\C/C=C\C/C=C\CCCC(=O)NCCO` [AND, anandamide], the GTTR uptake result in the data set on MDCK cells (AND 10^−4 M, calcium-free saline pH 7.3) is given as “little, or no, increase over controls; also recorded: little or no increase over controls”; in the data set on MDCK cells (AND 10^−5 M, calcium-free saline pH 7.3 (Example 1: greater extent than 10^−6 M)) it was “increased, although not to the level seen with RTX”; with MDCK cells (AND 10^−6 M, calcium-free saline pH 7.3), “increased, although not to the level seen with RTX”.
Take `[H]/N=C(/N)N[C@H]1[C@H](O)[C@@H](O)[C@H](O[C@@H]2O[C@@H](C)[C@](O)(C=O)[C@H]2O[C@@H]2O[C@@H](CO)[C@H](O)[C@@H](O)[C@@H]2NC)[C@@H](N/C(N)=N\[H])[C@@H]1O` [streptomycin]: the “incidence of vestibular impairment” value in data set [2] (1 gram per day) is 25%. The “patients displaying some vestibular impairment” value in data set [2] (2 grams daily for 60 to 120 days) was about 75%.
On to `C=C(C)[C@]12C[C@@H](C)[C@@]34O[C@](Cc5ccccc5)(O[C@@H]1[C@@H]3C=C(COC(=O)Cc1cc(I)c(O)c(OC)c1)C[C@]1(O)C(=O)C(C)=C[C@@H]41)O2` [I-RTX], for which the GTTR uptake entry in the data set with MDCK cells (10^−5 M I-RTX with 0.16 or 2.0 mM added calcium, pH 7.0) is given as “still caused increased GTTR uptake”; in the data set with MDCK cells (10^−5 M I-RTX, saline without added calcium, pH 7.0, 1 μg/mL GTTR 30 seconds), “increased GTTR uptake”. Also, in the data set with MDCK cells (I-RTX 10^−5 M, calcium-free saline pH 7.3), the GTTR fluorescence result is listed as “well over the upper limit of the available 0 to 255 gray scale”. The “hydrolyzed TR penetration into the cytoplasm (control for toxicity or increased permeability)” value in the data set on MDCK cells (10^−5 M I-RTX) is reported as “Neither I-RTX or RTX induced TR penetration into the cytoplasm”. The “GTTR uptake, effect compared with SB366791” value in the data set on MDCK cells (iodo-RTX dose series 10^−7 to 10^−5 M, calcium-free saline pH 7.3, listed as 1-RTX) is recorded as “dramatic; also recorded: more dramatic”. In data set [1] (iodo-RTX), the “GTTR uptake in saccular hair cells” value is recorded as “significantly enhanced by iodo-RTX”.
On to `[Ca+2].[Cl-].[Cl-]` [calcium, calcium chloride], for which the GTTR uptake result is listed as “higher” in the data set with MDCK cells (0.16 mM Ca^++ vs no calcium added or 2.0 mM, pH 7.0, 1 μg/mL GTTR); “increased” with MDCK cells (0.16 mM calcium vs no calcium added, saline pH 7.3); “GTTR uptake decreased” with MDCK cells (calcium concentrations above 0.16 mM, saline pH 7.3); “almost completely blocking uptake” in the data set on MDCK cells (calcium levels higher than 1.8 mM); “inhibitory” with MDCK cells (physiological calcium levels (1.8 mM)); “greater GTTR uptake” in the data set on inner ear explants (0.16 mM Ca^++ compared to 0.0 mM Ca^++).
Take `CC(C)[C@@H]1NC(=O)[C@H](C)OC(=O)[C@@H](C(C)C)NC(=O)[C@@H](C(C)C)OC(=O)[C@H](C(C)C)NC(=O)[C@H](C)OC(=O)[C@@H](C(C)C)NC(=O)[C@@H](C(C)C)OC(=O)[C@H](C(C)C)NC(=O)[C@H](C)OC(=O)[C@@H](C(C)C)NC(=O)[C@@H](C(C)C)OC1=O` [Valinomycin]: the GTTR uptake result in the data set with MDCK cells (10 μg/mL valinomycin in HBSS pH 7.3, 5 μg/mL GTTR 30 seconds) was “decreased the uptake of GTTR compared to control cells”.
As for `[Cl-].[K+]` [K^+, KCl], the GTTR uptake entry in the data set on MDCK cells (K^+ increased from 10 mM to 140 mM vs 5.8 mM, HBSS pH 7.3, 1 minute) was “clear and considerable decrease in GTTR uptake”; in the data set with inner ear explants (potassium depolarization of explants) it was “decreased GTTR uptake”.
